Measured values as given in patent publication US20240033200A1, “SEMI-PERMANENT TATTOOS” (Inkbox Ink Inc., priority 2020, published 2024).

Experiments:
[1] = Reaction with L-lysine (amino acids) to mimic skin binding; colour and UV-VIS of the dye formed; conditions: for color of solution after the addition of L-lysine: after addition of L-lysine ("Add Lysine"/"Lysine added"); for color of dye produced by reaction with L-lysine / λmax of dye produced after reaction with L-lysine: methanol, 2 equivalents L-lysine, room temperature; for color of dye produced by reaction with L-lysine: open air; for λmax of dye produced after reaction with L-lysine: open air (44 hours for Compound 1, overnight for others); for color produced upon reaction with amino acids: Additional Color Combinations; for color of L-lysine reaction solution after dilution: after dilution (vial at left); for color of solution before the addition of L-lysine: before L-lysine (Time 0); for color of solution 1 hr after the addition of L-lysine: 1 hr after L-lysine
Method: Compound 1 was weighed out (0.03 mmol) into a small vial equipped with a magnetic stir bar. To this vial, 1 mL of methanol was added and stirred until solubilized. L-lysine was then added to the stirred solution (2 equivalents) and the reaction mixture was capped and stirred over 44 hours at room temperature. A needle was punctured through the vial cap to ensure the reaction is conducted under open air. This method produced a yellow dye with a λmax=436 nm. See also FIGS. 26A and 26B.
(§1) Compound 10 was weighed out (n=0.03 mmol) into a small vial equipped with a magnetic stir bar. To this, 1 mL of methanol was added and stirred until solubilized. L-lysine was then added to the stirred solution (2 equivalents) and the reaction mixture was capped and stirred overnight at room temperature. A needle was punctured through the vial cap to ensure the reaction is conducted under open air. This produced a yellow dye with a λmax=433 nm.
as §1, with “14” for “10”, “produces” for “produced”, “red” for “yellow”, “λmax=480” for “λmax=433”
(§2) Compound 11 was weighed out (n=0.03 mmol) into a small vial equipped with a magnetic stir bar. To this, 2.5 mL of methanol was added followed by L-lysine (0.06 mmol, 2 equivalents). The reaction mixture was stirred for 24 hours at room temperature under open air. Compound 11 and Compound 11+lysine were diluted with methanol to make 0.06 mM solutions for UV-VIS characterization.
as §2, with “13” for “11”, “1.5” for “2.5”, “13+lysine” for “11 and Compound 11+lysine”
as §2, with “5” for “11”, “(n=0.05” for “(n=0.03”, “(0.1” for “(0.06”, “5+lysine” for “11+lysine”, “0.1” for “0.06”
(§3) Compound 7 was weighed out (n=0.04 mmol) into a small vial equipped with a magnetic stir bar. To this, 2 mL of methanol was added followed by L-lysine (0.08 mmol, 2 equivalents). The reaction mixture was stirred for 24 hours at room temperature under open air. Compound 7 and Compound 7+lysine were diluted with methanol to make 0.1 and 0.15 mM solutions, respectively, for UV-VIS characterization.
as §3, with “Compound 9” for “Compound 7”, “out (n=0.03” for “out (n=0.04”, “this, 1.5” for “this, 2”, “L-lysine (0.06” for “L-lysine (0.08”, “Compound 9+lysine” for “Compound 7+lysine”
as §2, with “Genipin” for “Compound 11”, “1.5” for “2.5”, “Genipin+lysine” for “Compound 11 and Compound 11+lysine”
Compound 12 was weighed out (n=0.03 mmol) into a small vial equipped with a magnetic stir bar. To this, 1.5 mL of methanol was added followed by L-lysine (0.06 mmol, 2 equivalents). The reaction mixture was stirred for 24 hours at room temperature under open air. […]

[2] = Color profile of single, binary and ternary dye compositions (Table 5); conditions: total dye in the final formulation 0.008-0.40 mmol/g

SMILES	color of solution after the addition of L-lysine [1]	color of dye produced by reaction with L-lysine [1]	λmax of dye produced after reaction with L-lysine [1]	color produced upon reaction with amino acids [1]	color of L-lysine reaction solution after dilution [1]	color of solution before the addition of L-lysine [1]	colors observed with L-lysine (FIG. 33) [1]	also measured
COC(=O)C1=COC(O)C2C1CC1COC12O (stereo not drawn) [Compound 10]	light brown	yellow	433 nm	–	–	–	–	–
COC(=O)C1=COC(O)[C@@H]2C(/C=C/c3ccc([N+](=O)[O-])cc3)=CC[C@H]12 (stereo partly drawn) [Compound 9]	–	–	–	vibrant red	–	–	–	–
COC(=O)C1=COC(O)C2C(C(=O)O)=CCC12 (stereo not drawn) [Compound 12]	light yellow	–	–	vibrant green	light yellow	colorless	light yellow	color of solution at 18 hours after the addition of L-lysine ([1]; 18 hours): dark brown
COC(=O)C1=CO[C@@H](O)[C@@H]2C(CO)=CC[C@H]12 [genipin, reference compound]	yellow	–	–	–	light blue	colorless	light blue	color of solution 1 hr after the addition of L-lysine [1]: dark blue
COC(=O)C1=COC(O)[C@@H]2C(/C=C/c3ccccc3)=CC[C@H]12 (stereo partly drawn) [Compound 7]	–	–	–	vibrant red	–	–	–	–
CCOC(=O)C(=CC1=CCC2C(C(=O)OC)=COC(OC(C)=O)C12)C(=O)OCC (stereo not drawn) [Compound 11]	–	–	–	vibrant red	–	–	–	–
COC(=O)C1=COC(O)C2C(C=O)=CCC12 (stereo not drawn) [Compound 1]	dark yellow	yellow	436 nm	vibrant yellow	yellow	colorless	yellow	color of solution 1 hr after the addition of L-lysine [1]: dark brown; color of solution at 44 hours after the addition of L-lysine ([1]; 44 hours): brown
COC(=O)C1=COC(OC(C)=O)C2C(C=O)=CCC12 (stereo not drawn) [Compound 2]	–	–	–	–	–	–	–	Color when reacted with amino acids [2]: Vibrant Red
CCN(CC)C(=O)C1=CCC2C(C(=O)OC)=COC(O)C12 (stereo not drawn) [Compound 13]	–	–	–	vibrant orange	–	–	–	–
O=C1C(O)=C(c2ccccc2)C(=O)c2ccccc21 [Compound 14, 2-Hydroxy-3-phenyl-1,4-Naphthalenedione]	–	red	480 nm	–	–	–	–	–
